Values of other authors, collected in US20150174190A1, “Formulation Against General, Physical, And/Or Mental Fatigue” (priority 2013, published 2015).

Test system: patients that suffered from fatigue

## CC(C)[C@H](N)C(=O)OCC(CO)OCn1cnc2c(=O)nc(N)[nH]c21 (stereo partly shown) [Valganciclovir]
  Effect on physical and cognitive performance: improved physical and cognitive performance
